Test system: Acinetobacter baumannii isolates
Assay: Antimicrobial susceptibility test, disc diffusion method (CLSI M100-S24)
Assay type: cell-based
Set-up: key to Inhibition zone: “NZ” indicated that no zone of inhibition was observed
Conditions: for susceptibility category: ATM disc; for Inhibition zone: disc diffusion
Method: A total of 33 non-duplicate, non-consecutive clinical isolates of Multi-Drug Resistant (MDR) Acinetobacter baumannii were collected from burn wards (“AB1-AB33”). Acinetobacter baumannii ATCC BAA 747 and Pseudomonas aeruginosa ATCC 27853 were used as control strains. The isolates were stored at −80° C. in trypticase soy broth containing 20% glycerol.
Antimicrobial susceptibility tests of the collection of isolates were conducted using the disc diffusion method. The experiment was performed according to the recommendations and guidelines of Clinical Laboratory Standard Institutes (CLSI M100-S24; 2014). Clinical and Laboratory Standards Institute (CLSI), “Performance standards for antimicrobial susceptibility testing; twenty-fourth informational supplement,” Document M100-S24, Clinical and Laboratory Standards Institute (CLSI), Wayne, Pa., USA, 2014.
A panel of commercial antibiotic discs (Amoxicillin (AMX), Amoxicillin/clavulanic acid (AMX/CLA), Piperacillin (PIP), Piperacillin/Tazobactam (PIP/TAZ), Ceftazidime (CAZ), Cefotaxime (CTX), Cefepime (FEP), Cefoxitin (FOX), Aztreonam (ATM), Imipenem (IP), Gentamicin (GEN), Amikacin (AK), Neomycin (NEO), Levofloxacin (LEV), Chloramphenicol (CHL), Tetracycline (TET), sulfamethoxazole/trimethoprim (SUL/TRI) was used for susceptibility testing. All commercial antibiotic discs were purchased from BBL (Becton Dickinson, USA).
Forty grams of Mueller-Hinton Agar (MHA) were suspended in 1 Liter distilled water and then boiled to dissolve the powder completely. The medium was sterilized by autoclaving at 121° C. for 15 min. After autoclaving, the medium was cooled to 45° C. and 25 mL of molten agar media was poured into sterile Petri dishes (90 mm diameter) to give a depth of about 4 mm. The surface of the agar was dried to remove excess moisture before use. The plates were stored at 4-8° C. in sealed plastic bags if not used immediately.
The inoculum suspension was prepared by selecting three to five morphologically similar colonies from overnight growth (16-24 h of incubation) on blood agar medium. […] The suspension density was measured using a UV spectrophotometer calibrated with a 0.5 McFarland standard. The density of the suspension was adjusted to McFarland 0.5 by addition of saline or more microorganisms. The adjusted inoculum suspension was used within 60 min of preparation.
A sterile cotton swab was dipped into the bacterial suspension and the excess fluid was removed by turning the swab against the inside wall of the tube to avoid over-inoculation of plates. The inoculum was spread evenly over the entire surface of the agar plate by swabbing in three directions.
The predetermined panel of antimicrobial disks was applied firmly on the inoculated Mueller-Hinton agar surface within 15 min of inoculation of the plates by a disc dispenser device. A maximum of six disks were accommodated on a 90-mm circular plate.
Within 15 min of application of antimicrobial disks, the plates were inverted and incubated aerobically at 35-37° C. for 18-20 h.
After incubation, inhibition zones were measured at the point where no obvious growth is detected by the unaided eye when the plate is held about 30 cm from the eye. Inhibition zone diameters were measured to the nearest millimeter with a ruler. The plates were read from the back of the plate with reflected light against a dark background. Zone diameters were interpreted and categorized as susceptible “S”, intermediate “I”, or resistant “R” according to the CLSI clinical breakpoint tables (see Table 1 and Table 2).

Structure (SMILES): C[C@H]1[C@H](NC(=O)/C(=N\OC(C)(C)C(=O)O)c2csc(N)n2)C(=O)N1S(=O)(=O)O [ATM, Aztreonam]
- susceptibility category (isolate AB1): R (Resistant ≤15)
- Inhibition zone (isolate AB1): NZ
- susceptibility category (isolate AB2): R (Resistant ≤15)
- Inhibition zone (isolate AB2): NZ
- susceptibility category (isolate AB3): R (Resistant ≤15)
- Inhibition zone (isolate AB3): NZ
- susceptibility category (isolate AB4): R (Resistant ≤15)
- Inhibition zone (isolate AB4): NZ
- susceptibility category (isolate AB5): R (Resistant ≤15)
- Inhibition zone (isolate AB5): NZ
- susceptibility category (isolate AB6): S (Sensitive ≥22)
- Inhibition zone (isolate AB6): 20 mm
- susceptibility category (isolate AB7): R (Resistant ≤15)
- Inhibition zone (isolate AB7): NZ
- susceptibility category (isolate AB8): R (Resistant ≤15)
- Inhibition zone (isolate AB8): NZ
- susceptibility category (isolate AB9): R (Resistant ≤15)
- Inhibition zone (isolate AB9): NZ
- susceptibility category (isolate AB10): R (Resistant ≤15)
- Inhibition zone (isolate AB10): 13 mm
- susceptibility category (isolate AB11): R (Resistant ≤15)
- Inhibition zone (isolate AB11): NZ
- susceptibility category (isolate AB12): R (Resistant ≤15)
- Inhibition zone (isolate AB12): NZ
- susceptibility category (isolate AB13): R (Resistant ≤15)
- Inhibition zone (isolate AB13): NZ
- susceptibility category (isolate AB14): R (Resistant ≤15)
- Inhibition zone (isolate AB14): NZ
- susceptibility category (isolate AB15): R (Resistant ≤15)
- Inhibition zone (isolate AB15): 11 mm
- susceptibility category (isolate AB16): S (Sensitive ≥22)
- Inhibition zone (isolate AB16): 33 mm
- susceptibility category (isolate AB17): R (Resistant ≤15)
- Inhibition zone (isolate AB17): 15 mm
- susceptibility category (isolate AB18): R (Resistant ≤15)
- Inhibition zone (isolate AB18): 10 mm
- susceptibility category (isolate AB19): R (Resistant ≤15)
- Inhibition zone (isolate AB19): 8 mm
- susceptibility category (isolate AB20): R (Resistant ≤15)
- Inhibition zone (isolate AB20): NZ
- susceptibility category (isolate AB21): R (Resistant ≤15)
- Inhibition zone (isolate AB21): 7 mm
- susceptibility category (isolate AB22): R (Resistant ≤15)
- Inhibition zone (isolate AB22): NZ
- susceptibility category (isolate AB23): R (Resistant ≤15)
- Inhibition zone (isolate AB23): NZ
- susceptibility category (isolate AB24): R (Resistant ≤15)
- Inhibition zone (isolate AB24): NZ
- susceptibility category (isolate AB25): R (Resistant ≤15)
- Inhibition zone (isolate AB25): 13 mm
- susceptibility category (isolate AB26): R (Resistant ≤15)
- Inhibition zone (isolate AB26): 12 mm
- susceptibility category (isolate AB27): R (Resistant ≤15)
- Inhibition zone (isolate AB27): NZ
- susceptibility category (isolate AB28): R (Resistant ≤15)
- Inhibition zone (isolate AB28): NZ
- susceptibility category (isolate AB29): R (Resistant ≤15)
- Inhibition zone (isolate AB29): NZ
- susceptibility category (isolate AB30): R (Resistant ≤15)
- Inhibition zone (isolate AB30): 9 mm
- susceptibility category (isolate AB31): R (Resistant ≤15)
- Inhibition zone (isolate AB31): NZ
- susceptibility category (isolate AB32): R (Resistant ≤15)
- Inhibition zone (isolate AB32): 8 mm
- susceptibility category (isolate AB33): R (Resistant ≤15)
- Inhibition zone (isolate AB33): 9 mm

Structure (SMILES): O=C(N[C@H](CO)[C@H](O)c1ccc([N+](=O)[O-])cc1)C(Cl)Cl [CHL, Chloramphenicol]
- Inhibition zone (isolate AB1): NZ
- Inhibition zone (isolate AB2): 24 mm
- Inhibition zone (isolate AB3): 26 mm
- Inhibition zone (isolate AB4): 23 mm
- Inhibition zone (isolate AB5): 8 mm
- Inhibition zone (isolate AB6): NZ
- Inhibition zone (isolate AB7): NZ
- Inhibition zone (isolate AB8): 7 mm
- Inhibition zone (isolate AB9): 24 mm
- Inhibition zone (isolate AB10): NZ
- Inhibition zone (isolate AB11): NZ
- Inhibition zone (isolate AB12): NZ
- Inhibition zone (isolate AB13): NZ
- Inhibition zone (isolate AB14): NZ
- Inhibition zone (isolate AB15): 10 mm
- Inhibition zone (isolate AB16): 30 mm
- Inhibition zone (isolate AB17): 13 mm
- Inhibition zone (isolate AB18): 8 mm
- Inhibition zone (isolate AB19): 8 mm
- Inhibition zone (isolate AB20): NZ
- Inhibition zone (isolate AB21): NZ
- Inhibition zone (isolate AB22): NZ
- Inhibition zone (isolate AB23): NZ
- Inhibition zone (isolate AB24): 8 mm
- Inhibition zone (isolate AB25): NZ
- Inhibition zone (isolate AB26): 25 mm
- Inhibition zone (isolate AB27): NZ
- Inhibition zone (isolate AB28): 14 mm
- Inhibition zone (isolate AB29): 12 mm
- Inhibition zone (isolate AB30): 11 mm
- Inhibition zone (isolate AB31): 8 mm
- Inhibition zone (isolate AB32): 9 mm
- Inhibition zone (isolate AB33): 18 mm

Structure (SMILES): CCN1CCN(C(=O)N[C@@H](C(=O)N[C@@H]2C(=O)N3[C@@H]2SC(C)(C)[C@@H]3C(=O)O)c2ccccc2)C(=O)C1=O [PIP, Piperacillin]
- Inhibition zone (isolate AB1): 21 mm
- Inhibition zone (isolate AB2): 20 mm
- Inhibition zone (isolate AB3): 32 mm
- Inhibition zone (isolate AB4): 21 mm
- Inhibition zone (isolate AB5): NZ
- Inhibition zone (isolate AB6): 18 mm
- Inhibition zone (isolate AB7): NZ
- Inhibition zone (isolate AB8): NZ
- Inhibition zone (isolate AB9): 24 mm
- Inhibition zone (isolate AB10): NZ
- Inhibition zone (isolate AB11): NZ
- Inhibition zone (isolate AB12): NZ
- Inhibition zone (isolate AB13): NZ
- Inhibition zone (isolate AB14): NZ
- Inhibition zone (isolate AB15): NZ
- Inhibition zone (isolate AB16): 16 mm
- Inhibition zone (isolate AB17): 15 mm
- Inhibition zone (isolate AB18): 8 mm
- Inhibition zone (isolate AB19): NZ
- Inhibition zone (isolate AB20): NZ
- Inhibition zone (isolate AB21): NZ
- Inhibition zone (isolate AB22): NZ
- Inhibition zone (isolate AB23): NZ
- Inhibition zone (isolate AB24): NZ
- Inhibition zone (isolate AB25): 10 mm
- Inhibition zone (isolate AB26): NZ
- Inhibition zone (isolate AB27): 8 mm
- Inhibition zone (isolate AB28): 7 mm
- Inhibition zone (isolate AB29): NZ
- Inhibition zone (isolate AB30): 8 mm
- Inhibition zone (isolate AB31): 8 mm
- Inhibition zone (isolate AB32): 8 mm
- Inhibition zone (isolate AB33): 22 mm

— patent publication US11617726B2, “Method for preventing, treating, or ameliorating a microbial infection” (priority 2018, dated 2023)
